Test results as given in US20260265233A1, “BENZOTHIOPHENE DERIVATIVES AS RXFP1 AGONISTS” (BRISTOL-MYERS SQUIBB COMPANY, priority 2021, published 2026).

Each molecule was assayed against T1, human RXFP1 (Homo sapiens, UniProt Q9HBX9) (assay: hRXFP1 HEK293 cAMP assay (HTRF)). Conditions: HEK293 cells stably expressing human RXFP1; 30 min at rt; intracellular cAMP by HTRF.
T1 construct: expressed in transfected cells
T1 sequence (Q9HBX9 1-757): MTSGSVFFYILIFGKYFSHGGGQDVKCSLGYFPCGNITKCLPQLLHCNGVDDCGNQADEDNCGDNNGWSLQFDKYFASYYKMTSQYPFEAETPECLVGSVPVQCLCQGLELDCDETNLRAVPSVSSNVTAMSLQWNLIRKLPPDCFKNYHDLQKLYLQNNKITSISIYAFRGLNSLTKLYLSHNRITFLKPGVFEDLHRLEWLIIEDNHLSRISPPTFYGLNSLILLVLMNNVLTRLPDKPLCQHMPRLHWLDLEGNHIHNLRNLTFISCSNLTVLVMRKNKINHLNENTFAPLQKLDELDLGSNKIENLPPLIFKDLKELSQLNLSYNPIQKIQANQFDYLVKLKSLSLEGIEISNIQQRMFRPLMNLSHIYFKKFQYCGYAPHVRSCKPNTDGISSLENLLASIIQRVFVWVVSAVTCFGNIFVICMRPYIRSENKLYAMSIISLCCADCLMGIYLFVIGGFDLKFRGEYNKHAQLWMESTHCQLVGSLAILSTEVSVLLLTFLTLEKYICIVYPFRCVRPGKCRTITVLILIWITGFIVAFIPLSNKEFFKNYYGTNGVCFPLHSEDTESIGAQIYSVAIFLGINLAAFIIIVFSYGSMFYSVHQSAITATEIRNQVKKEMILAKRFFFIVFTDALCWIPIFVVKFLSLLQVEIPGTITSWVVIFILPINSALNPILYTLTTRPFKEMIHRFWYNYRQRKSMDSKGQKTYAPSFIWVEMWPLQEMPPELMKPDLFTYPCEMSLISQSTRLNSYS
Type: cell-based
Method in brief: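 Agonism is measured as cAMP by HTRF, quantified from a standard curve via the 665/590 nm ratio and fitted with a four-parameter logistic equation. Compounds (0.010 nM to 50 μM final, 2% DMSO) were applied for 30 min at rt to human RXFP1-expressing HEK293 cells in assay buffer containing 0.5 mM IBMX.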

Compound	EC50
COc1ccc(C2=NOC3CC(NC(=O)C(C)(C)O)CC23)cc1C(=O)Nc1c(C(=O)Nc2ccc(F)c(C(F)(F)F)c2)sc2cc(C(F)(F)F)ccc12 (single isomer, unassigned) [Example 265, N-[4-fluoro-3-(trifluoromethyl)phenyl]-3-{5-[5-(2-hydroxy-2-methyl-propanamido)-3aH,4H,5H,6H, 6aH-cyclopenta[d] [1,2]oxazol-3-yl]-2-methoxy-benzamido}-6-(trifluoromethyl)-1-benzothiophene-2-carboxamide]	1140 nM
COc1ccc(C2=NOC3CC(NC(=O)CO)CC23)cc1C(=O)Nc1c(C(=O)Nc2ccc(F)c(C(F)(F)F)c2)sc2cc(C(F)(F)F)ccc12 (single isomer, unassigned) [Example 266, N-[4-fluoro-3-(trifluoromethyl)phenyl]-3-{5-[5-(2-hydroxyacetamido)-3aH,4H,5H,6H, 6aH-cyclopenta[d] [1,2]oxazol-3-yl]-2-methoxy-benzamido}-6-(trifluoromethyl)-1-benzothiophene-2-carboxamide]	2410 nM
COc1ccc(C2=NOC3CC(NC(=O)C(C)(C)O)CC23)cc1C(=O)Nc1c(C(=O)Nc2ccc(F)c(C(F)(F)F)c2)sc2cc(C(F)(F)F)ccc12 (single isomer, unassigned) [Example 267, N-[4-fluoro-3-(trifluoromethyl)phenyl]-3-{5-[5-(2-hydroxy-2-methyl-propanamido)-3aH,4H,5H,6H, 6aH-cyclopenta[d] [1,2]oxazol-3-yl]-2-methoxy-benzamido}-6-(trifluoromethyl)-1-benzothiophene-2-carboxamide]	3130 nM
COc1ccc(N2CCCC(NCC(N)=O)C2)cc1C(=O)Nc1c(C(=O)Nc2ccc(F)c(C(F)(F)F)c2)sc2cc(C(F)(F)F)ccc12 (stereo in doubt) [Example 210, (S)-3-(5-(3-((2-amino-2-oxoethyl)amino)piperidin-1-yl)-2-methoxy-benzamido)-N-(4-fluoro-3-(trifluoromethyl)phenyl)-6-(trifluoromethyl) benzo[b] thiophene-2-carboxamide]	1930 nM
COc1ccc(-n2cc(C(=O)O)cn2)cc1C(=O)Nc1c(C(=O)Nc2ccc(F)c(C(F)(F)F)c2)sc2cc(C(F)(F)F)ccc12 [Example 2, 1-(3-((2-((4-fluoro-3-(trifluoromethyl)phenyl)carbamoyl)-6-(trifluoromethyl)benzo[b]thiophen-3-yl)carbamoyl)-4-methoxyphenyl)-1H-pyrazole-4-carboxylic acid]	2010 nM
COc1ncc(N2CCCC(CO)C2)cc1C(=O)Nc1c(C(=O)Nc2ccc(F)c(C(F)(F)F)c2)sc2cc(C(F)(F)F)ccc12 (stereo not shown) [Example 11, N-(2-((4-fluoro-3-(trifluoromethyl)phenyl)carbamoyl)-6-(trifluoromethyl)benzo[b]thiophen-3-yl)-5-(3-(hydroxymethyl)piperidin-1-yl)-2-methoxynicotinamide]	2540 nM
COc1ncc(N2CCS(=O)(=O)CC2)cc1C(=O)Nc1c(C(=O)Nc2ccc(F)c(C(F)(F)F)c2)sc2cc(C(F)(F)F)ccc12 [Example 12, 5-(1,1-dioxidothiomorpholino)-N-(2-((4-fluoro-3-(trifluoromethyl)phenyl)carbamoyl)-6-(trifluoromethyl)benzo[b]thiophen-3-yl)-2-methoxynicotinamide]	2130 nM
COc1ccc(-c2cc(C(=O)O)ccc2F)cc1C(=O)Nc1c(C(=O)Nc2ccc(F)c(C(F)(F)F)c2)sc2ccccc12 [Example 15, 6-fluoro-3′-((2-((4-fluoro-3-(trifluoromethyl)phenyl)carbamoyl)benzo[b]thiophen-3-yl)carbamoyl)-4′-methoxy-[1, 1′-biphenyl]-3-carboxylic acid]	1560 nM
COc1ccc(-c2cc(CN)ccc2F)cc1C(=O)Nc1c(C(=O)Nc2ccc(F)c(C(F)(F)F)c2)sc2cc(C(F)(F)F)ccc12 [Example 16, 3-(5′-(aminomethyl)-2′-fluoro-4-methoxy-[1,1′-biphenyl]-3-carboxamido)-N-(4-fluoro-3-(trifluoromethyl)phenyl)-6-(trifluoromethyl)benzo[b]thiophene-2-carboxamide]	677 nM
COc1ccc(-c2cc(CNCC(C)C)ccc2F)cc1C(=O)Nc1c(C(=O)Nc2ccc(F)c(C(F)(F)F)c2)sc2cc(C(F)(F)F)ccc12 [Example 19, N-(4-fluoro-3-(trifluoromethyl)phenyl)-3-(2′-fluoro-5′-((isobutylamino)methyl)-4-methoxy-[1,1′-biphenyl]-3-carboxamido)-6-(trifluoromethyl) benzo[b]thiophene-2-carboxamide]	1010 nM

Stronger by EC50, values ahead:

EC50	Compound
4.9 nM	COc1ccc(C2=NOC3CC(CO)CC23)cc1C(=O)Nc1c(C(=O)Nc2ccc(F)c(C(F)(F)F)c2)sc2cc(C(F)(F)F)ccc12 (single isomer, unassigned) [Example 268, N-[4-fluoro-3-(trifluoromethyl)phenyl]-3-{5-[5-(hydroxymethyl)-3aH,4H,5H,6H, 6aH-cyclopenta[d] [1,2]oxazol-3-yl]-2-methoxy-benzamido}-6-(trifluoromethyl)-1-benzothiophene-2-carboxamide]
593 nM	COc1ccc(N2CCCC(NCC(N)=O)C2)cc1C(=O)Nc1c(C(=O)Nc2ccc(F)c(C(F)(F)F)c2)sc2cc(C(F)(F)F)ccc12 (stereo in doubt) [Example 112, (R)-3-(5-(3-((2-amino-2-oxoethyl)amino)piperidin-1-yl)-2-methoxy-benzamido)-N-(4-fluoro-3-(trifluoromethyl)phenyl)-6-(trifluoromethyl) benzo[b] thiophene-2-carboxamide]
631 nM	COC(=O)C1CN(c2ccc(OC)c(C(=O)Nc3c(C(=O)Nc4ccc(F)c(C(F)(F)F)c4)sc4cc(C(F)(F)F)ccc34)c2)C1 [Example 1, Methyl 1-(3-((2-((4-fluoro-3-(trifluoromethyl)phenyl)carbamoyl)-6-(trifluoromethyl)benzo[b]thiophen-3-yl)carbamoyl)-4-methoxyphenyl)azetidine-3-carboxylate]
350 nM	COc1ccc(-n2cc(C(C)(C)O)cn2)cc1C(=O)Nc1c(C(=O)Nc2ccc(F)c(C(F)(F)F)c2)sc2cc(C(F)(F)F)ccc12 [Example 3, N-(4-fluoro-3-(trifluoromethyl)phenyl)-3-(5-(4-(2-hydroxypropan-2-yl)-1H-pyrazol-1-yl)-2-methoxybenzamido)-6-(trifluoromethyl) benzo[b]thiophene-2-carboxamide]
111 nM	COc1ccc(N2CCCCS2(=O)=O)cc1C(=O)Nc1c(C(=O)Nc2ccc(F)c(C(F)(F)F)c2)sc2cc(C(F)(F)F)ccc12 [Example 10, 3-(5-(1,1-dioxido-1,2-thiazinan-2-yl)-2-methoxybenzamido)-N-(4-fluoro-3-(trifluoromethyl)phenyl)-6-(trifluoromethyl)benzo[b]thiophene-2-carboxamide]
87 nM	COc1ccc(-c2ccc(F)c(C(=O)O)c2)cc1C(=O)Nc1c(C(=O)Nc2ccc(F)c(C(F)(F)F)c2)sc2cc(C(F)(F)F)ccc12 [Example 13, 4-fluoro-3′-((2-((4-fluoro-3-(trifluoromethyl)phenyl)carbamoyl)-6-(trifluoromethyl)benzo[b]thiophen-3-yl)carbamoyl)-4′-methoxy-[1, 1′-biphenyl]-3-carboxylic acid]
135 nM	COc1ccc(-c2cccc(C(=O)O)c2F)cc1C(=O)Nc1c(C(=O)Nc2ccc(F)c(C(F)(F)F)c2)sc2cc(C(F)(F)F)ccc12 [Example 14, 2-fluoro-3′-((2-((4-fluoro-3-(trifluoromethyl)phenyl)carbamoyl)-6-(trifluoromethyl)benzo[b]thiophen-3-yl)carbamoyl)-4′-methoxy-[1,1′-biphenyl]-3-carboxylic acid]
10.3 nM	COc1ccc(-c2cc(CNS(C)(=O)=O)ccc2F)cc1C(=O)Nc1c(C(=O)Nc2ccc(F)c(C(F)(F)F)c2)sc2cc(C(F)(F)F)ccc12 [Example 17, N-(4-fluoro-3-(trifluoromethyl)phenyl)-3-(2′-fluoro-4-methoxy-5′-(methylsulfonamidomethyl)-[1,1′-biphenyl]-3-carboxamido)-6-(trifluoromethyl)benzo[b]thiophene-2-carboxamide]
311 nM	COc1ccc(-c2cc(CNC(=O)C3CCC3)ccc2F)cc1C(=O)Nc1c(C(=O)Nc2ccc(F)c(C(F)(F)F)c2)sc2cc(C(F)(F)F)ccc12 [Example 18, 3-(5′-(cyclobutanecarboxamidomethyl)-2′-fluoro-4-methoxy-[1,1′-biphenyl]-3-carboxamido)-N-(4-fluoro-3-(trifluoromethyl)phenyl)-6-(trifluoromethyl)benzo[b]thiophene-2-carboxamide]
